Where a name gives a salt, the structure may show the parent alone.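 1) Cells in 96-well plates. 2) Compound, 48 h, 5 concentrations. 3) Linear interpolation between surrounding doses. 4) Unreached endpoint = highest concentration. GI50 = concentration required for 50% inhibition of growth.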 Calls of active or inactive are those of the source. Cut-off read from the data, not from the text of the source: active = GI50 up to about 1.1 µM and inactive = higher. Non-standard residues stand in square brackets, D forms with d. Residues, ends and D or L forms follow the SMILES beside them. ξ: configuration not given here. *: point of attachment. X18 = COC1=CC(=O)N(C(=O)C(O*)C(C)C)C1Cc1ccccc1; ξNMe2Val = CC(C)C(C(=O)*)N(C)C; NMeV = CN[CH](C(=O)O)C(C)C
Legend:
Assay in all cases: NCI tumour cell line growth inhibition, 48 h
[1] = tested on: 786-0
[2] = tested on: A498
[3] = tested on: A549
[4] = tested on: ACHN
[5] = tested on: CAKI-1
[6] = tested on: CCRF-CEM
[7] = tested on: COLO 205
[8] = tested on: DLD-1
[9] = tested on: DMS-114
[10] = tested on: DMS-273
[11] = tested on: EKVX
[12] = tested on: HCC 2998
[13] = tested on: HCT-116
[14] = tested on: HCT-15
[15] = tested on: HL-60
[16] = tested on: HOP-18
[17] = tested on: HOP-62
[18] = tested on: HOP-92
[19] = tested on: HT-29
[20] = tested on: IGROV-1
[21] = tested on: K562
[22] = tested on: KM-20L2
[23] = tested on: KM12
[24] = tested on: LXFL 529
[25] = tested on: M14
[26] = tested on: M19-MEL
[27] = tested on: MOLT-4
[28] = tested on: Malme-3M
[29] = tested on: NCI-H226
[30] = tested on: NCI-H23
[31] = tested on: NCI-H460
[32] = tested on: NCI-H522
[33] = tested on: OVCAR-3
[34] = tested on: OVCAR-5
[35] = tested on: OVCAR-8
[36] = tested on: RPMI-8226
[37] = tested on: RXF 393
[38] = tested on: RXF 631
[39] = tested on: SF-268
[40] = tested on: SF-295
[41] = tested on: SF-539
[42] = tested on: SK-MEL-28
[43] = tested on: SK-MEL-2
[44] = tested on: SK-MEL-5
[45] = tested on: SK-OV-3
[46] = tested on: SN12C
[47] = tested on: SNB-19
[48] = tested on: SNB-75
[49] = tested on: SNB-78
[50] = tested on: SR
[51] = tested on: SW-620
[52] = tested on: TK-10
[53] = tested on: U-251
[54] = tested on: UACC-257
[55] = tested on: UACC-62
[56] = tested on: UO-31
[57] = tested on: XF498
[58] = tested on: BT-549
[59] = tested on: DU-145
[60] = tested on: Hs-578T
[61] = tested on: LOX IMVI
[62] = tested on: MCF7
[63] = tested on: MDA-MB-231
[64] = tested on: MDA-MB-435
[65] = tested on: MDA-N
[66] = tested on: NCI/ADR-RES
[67] = tested on: OVCAR-4
[68] = tested on: PC-3
[69] = tested on: T47D

## C=C1C(=O)C23CC1CCC2C12CO[C@@H]4OCC(C)(CC[C@@H]1OC3=O)C42 (stereo not given in full)
[1]
  GI50: 2.24 µM (inactive)
[2]
  GI50: 19.4 µM (inactive)
[3]
  GI50: 10.9 µM (inactive)
[4]
  GI50: 3.14 µM (inactive)
[5]
  GI50: 2.38 µM (inactive)
[6]
  GI50: 2.38 µM (inactive)
[7]
  GI50: 2.1 µM (inactive)
[8]
  GI50: 3.52 µM (inactive)
[9]
  GI50: 1.9 µM (inactive)
[10]
  GI50: 6.56 µM (inactive)
[11]
  GI50: 15.5 µM (inactive)
[12]
  GI50: 16.4 µM (inactive)
[13]
  GI50: 2.08 µM (inactive)
[14]
  GI50: 2.9 µM
[15]
  GI50: 0.569 µM (active)
[16]
  GI50: 6.41 µM (inactive)
[17]
  GI50: 27 µM (inactive)
[18]
  GI50: 2.64 µM (inactive)
[19]
  GI50: 2.54 µM (inactive)
[20]
  GI50: 6.95 µM (inactive)
[21]
  GI50: 7.69 µM (inactive)
[22]
  GI50: 5.38 µM (inactive)
[23]
  GI50: 5.43 µM (inactive)
[24]
  GI50: 2.78 µM (inactive)
[25]
  GI50: 1.31 µM (inactive)
[26]
  GI50: 6.53 µM (inactive)
[27]
  GI50: 3.01 µM (inactive)
[28]
  GI50: 2.3 µM (inactive)
[29]
  GI50: 20.7 µM (inactive)
[30]
  GI50: 6.04 µM (inactive)
[31]
  GI50: 6.64 µM (inactive)
[32]
  GI50: 1.01 µM (active)
[33]
  GI50: 6.49 µM (inactive)
[34]
  GI50: 15.8 µM (inactive)
[35]
  GI50: 2.02 µM (inactive)
[36]
  GI50: 1.57 µM (inactive)
[37]
  GI50: 2.51 µM (inactive)
[38]
  GI50: 12.1 µM (inactive)
[39]
  GI50: 6.32 µM (inactive)
[40]
  GI50: 16.9 µM (inactive)
[41]
  GI50: 7.14 µM (inactive)
[42]
  GI50: 2.23 µM (inactive)
[43]
  GI50: 11.9 µM (inactive)
[44]
  GI50: 14.8 µM (inactive)
[45]
  GI50: 23.3 µM (inactive)
[46]
  GI50: 8.32 µM (inactive)
[47]
  GI50: 8 µM (inactive)
[48]
  GI50: 16.4 µM (inactive)
[49]
  GI50: 2.3 µM (inactive)
[50]
  GI50: 1.35 µM (inactive)
[51]
  GI50: 2.49 µM (inactive)
[52]
  GI50: 5.75 µM (inactive)
[53]
  GI50: 14 µM (inactive)
[54]
  GI50: 4.98 µM (inactive)
[55]
  GI50: 11.7 µM (inactive)
[56]
  GI50: 9.71 µM (inactive)
[57]
  GI50: 1.92 µM (inactive)

## COC1=CC(=O)N(C(=O)C(OC(=O)C2CCCN2C(=O)C2CCCN2C(=O)C(C(C)C)N(C)C(=O)C(NC(=O)C(C(C)C)N(C)C)C(C)C)C(C)C)C1Cc1ccccc1 (stereo not given) (ξNMe2Val-V[NMeV]PP-X18; configuration not given here)
[1]
  GI50: 0.00223 µM (active)
[2]
  GI50: 0.00424 µM (active)
[3]
  GI50: 0.00955 µM (active)
[4]
  GI50: 0.00931 µM (active)
[58]
  GI50: 0.00046 µM (active)
[5]
  GI50: 0.00103 µM (active)
[6]
  GI50: 0.000309 µM (active)
[7]
  GI50: 0.00163 µM (active)
[8]
  GI50: 0.00108 µM (active)
[9]
  GI50: 0.000476 µM (active)
[10]
  GI50: 0.00103 µM (active)
[59]
  GI50: 0.000618 µM (active)
[11]
  GI50: 0.00242 µM (active)
[12]
  GI50: 0.00205 µM (active)
[13]
  GI50: 0.000582 µM (active)
[14]
  GI50: 0.0014 µM
[15]
  GI50: 0.000171 µM (active)
[16]
  GI50: < 0.01 µM (active)
[17]
  GI50: 0.00461 µM (active)
[18]
  GI50: 0.00294 µM (active)
[19]
  GI50: 0.000573 µM (active)
[60]
  GI50: 0.000188 µM (active)
[20]
  GI50: 0.00231 µM (active)
[21]
  GI50: 0.000349 µM (active)
[22]
  GI50: 0.00135 µM (active)
[23]
  GI50: 0.00238 µM (active)
[61]
  GI50: 0.000849 µM (active)
[24]
  GI50: 0.00119 µM (active)
[25]
  GI50: 0.0027 µM (active)
[26]
  GI50: 0.00319 µM (active)
[62]
  GI50: 0.00024 µM (active)
[63]
  GI50: 0.00146 µM (active)
[64]
  GI50: 5.13e-05 µM (active)
[65]
  GI50: 3.61e-05 µM (active)
[27]
  GI50: 0.00102 µM (active)
[28]
  GI50: 0.0027 µM (active)
[29]
  GI50: 0.00773 µM (active)
[30]
  GI50: 0.00315 µM (active)
[31]
  GI50: 0.00158 µM (active)
[32]
  GI50: 0.000347 µM (active)
[66]
  GI50: 0.0234 µM (active)
[33]
  GI50: 0.000327 µM (active)
[67]
  GI50: 0.00826 µM (active)
[34]
  GI50: < 0.01 µM (active)
[35]
  GI50: 0.00201 µM (active)
[68]
  GI50: 0.00158 µM (active)
[36]
  GI50: 0.000524 µM (active)
[37]
  GI50: 0.00164 µM (active)
[38]
  GI50: 0.00459 µM (active)
[39]
  GI50: 0.00189 µM (active)
[40]
  GI50: 0.00161 µM (active)
[41]
  GI50: 0.00135 µM (active)
[42]
  GI50: 0.00309 µM (active)
[43]
  GI50: 0.000902 µM (active)
[44]
  GI50: 0.00109 µM (active)
[45]
  GI50: 0.00485 µM (active)
[46]
  GI50: 0.00188 µM (active)
[47]
  GI50: 0.00629 µM (active)
[48]
  GI50: 0.0018 µM (active)
[49]
  GI50: 0.00244 µM (active)
[50]
  GI50: 0.000251 µM (active)
[51]
  GI50: 0.000469 µM (active)
[69]
  GI50: < 0.01 µM (active)
[52]
  GI50: 0.00682 µM (active)
[53]
  GI50: 0.00235 µM (active)
[54]
  GI50: 0.0025 µM (active)
[55]
  GI50: 0.00189 µM (active)
[56]
  GI50: 0.00938 µM (active)
[57]
  GI50: 0.000308 µM (active)

## CC(=O)N(O)CCCCCNC(=O)CCC(=O)N(O)CCCCCNC(=O)CCC(=O)N(O)CCCCCN [DEFEROXAMINE HYDROCHLORIDE]
[1]
  GI50: 13.3 µM (inactive)
[2]
  GI50: > 80.4 µM (inactive)
[3]
  GI50: 14.5 µM (inactive)
[4]
  GI50: 12.5 µM (inactive)
[58]
  GI50: 57.5 µM (inactive)
[5]
  GI50: 42.4 µM (inactive)
[6]
  GI50: 4.48 µM (inactive)
[7]
  GI50: 34.7 µM (inactive)
[8]
  GI50: 45.3 µM (inactive)
[9]
  GI50: 43.4 µM (inactive)
[10]
  GI50: 28.2 µM (inactive)
[59]
  GI50: 13.6 µM (inactive)
[11]
  GI50: 29 µM (inactive)
[12]
  GI50: 55.7 µM (inactive)
[13]
  GI50: 14 µM (inactive)
[14]
  GI50: 16.8 µM
[15]
  GI50: 31 µM (inactive)
[16]
  GI50: 12.7 µM (inactive)
[17]
  GI50: 18.4 µM (inactive)
[18]
  GI50: > 100 µM (inactive)
[19]
  GI50: 36.6 µM (inactive)
[60]
  GI50: > 100 µM (inactive)
[20]
  GI50: 65.6 µM (inactive)
[21]
  GI50: 57.5 µM (inactive)
[22]
  GI50: 17.8 µM (inactive)
[23]
  GI50: 26.7 µM (inactive)
[61]
  GI50: 13.5 µM (inactive)
[24]
  GI50: 36.4 µM (inactive)
[25]
  GI50: 19 µM (inactive)
[26]
  GI50: 43.8 µM (inactive)
[62]
  GI50: 37.9 µM (inactive)
[63]
  GI50: > 100 µM (inactive)
[64]
  GI50: > 78.5 µM (inactive)
[65]
  GI50: 53.2 µM (inactive)
[27]
  GI50: 11.2 µM (inactive)
[28]
  GI50: 55.1 µM (inactive)
[29]
  GI50: 26.9 µM (inactive)
[30]
  GI50: 63.5 µM (inactive)
[31]
  GI50: 6.53 µM (inactive)
[32]
  GI50: 41.9 µM (inactive)
[66]
  GI50: > 72.3 µM (inactive)
[33]
  GI50: 20.9 µM (inactive)
[67]
  GI50: 21.7 µM (inactive)
[34]
  GI50: 12.5 µM (inactive)
[35]
  GI50: 38.4 µM (inactive)
[68]
  GI50: > 73.6 µM (inactive)
[36]
  GI50: 62.5 µM (inactive)
[37]
  GI50: 57.4 µM (inactive)
[38]
  GI50: 26.9 µM (inactive)
[39]
  GI50: 24.9 µM (inactive)
[40]
  GI50: 7.38 µM (inactive)
[41]
  GI50: 30.1 µM (inactive)
[42]
  GI50: 37.9 µM (inactive)
[43]
  GI50: > 92.7 µM (inactive)
[44]
  GI50: 21.7 µM (inactive)
[45]
  GI50: 38.2 µM (inactive)
[46]
  GI50: 25.9 µM (inactive)
[47]
  GI50: 51.6 µM (inactive)
[48]
  GI50: > 100 µM (inactive)
[49]
  GI50: > 100 µM (inactive)
[50]
  GI50: 8.87 µM (inactive)
[51]
  GI50: 29.1 µM (inactive)
[69]
  GI50: > 100 µM (inactive)
[52]
  GI50: 42 µM (inactive)
[53]
  GI50: 20.6 µM (inactive)
[54]
  GI50: 50.4 µM (inactive)
[55]
  GI50: 31.6 µM (inactive)
[56]
  GI50: 24.5 µM (inactive)
[57]
  GI50: > 100 µM (inactive)
